B1: NAB1: Egr1 co-repressor NGFI-A-binding protein 1, over-expressed from pCMV5-NAB1 (protein)
chain: MAAALPRTLGELQLYRILQKANLLSYFDAFIQQGGDDVQQLCEAGEEEFLEIMALVGMASKPLHVRRLQKALRDWVTNPGLFNQPLTSLPVSSIPIYKLPEGSPTWLGISCSSYERSSNAREPHLKIPKCAATTCVQSLGQGKSDVVGSLALQSVGESRLWQGHHATESEHSLSPADLGSPASPKESSEALDAAAALSVAECVERMAPTLPKSDLNEVKELLKTNKKLAKMIGHIFEMNDDDPHKEEEIRKYSAIYGRFDSKRKDGKHLTLHELTVNEAAAQLCVKDNALLTRRDELFALARQISREVTYKYTYRTTKSKCGERDELSPKRIKVEDGFPDFQDSVQTLFQQARAKSEELAALSSQQPEKVMAKQMEFLCNQAGYERLQHAERRLSAGLYRQSSEEHSPNGLTSDNSDGQGERPLNLRMPNLQNRQPHHFVVDGELSRLYPSEAKSHSSESLGILKDYPHSAFTLEKKVIKTEPEDSR

Key:
[1] = system: Prm3; settings: cited from earlier work
[2] = system: Prm1; settings: cited from earlier work
[3] = system: Prm1-directed luciferase expression; experiment: Effect of over-expression of WT1 isoforms, Egr1 or NAB1 on Prm1-directed luciferase expression in HEL cells; format: cell-based, human
Experimental: HEL and EA.hy 926 cells were co-transfected with the various pGL3Basic-recombinant plasmids (2 mg), encoding firefly luciferase, along with pRL-TK (200 ng), encoding renilla luciferase, using DMRIE-C® transfection reagent. HEK293, WI-38, and 1° hAoSMCs were co-transfected with the pGL3Basic-recombinant plasmids (2 mg), along with pRL-TK (200 ng), using Effectene transfection reagent. In all cases, cells co-transfected with pRL-TK (200 ng) in the presence of either the pGL3Control vector (firefly luciferase gene under the control of the SV40 promoter; 2 mg) or the promoter-less pGL3Basic empty vector (2 mg), which served as positive and negative controls, respectively. Firefly and renilla luciferase expression was assayed some 48 h post-transfection using the Dual-Luciferase Reporter Assay System™, as described (Coyle et al., 2005). Relative firefly to renilla luciferase activity (arbitrary units) was calculated as a ratio and was expressed in relative luciferase units (RLU). To investigate the effect of over-expression of exon 5 (+ or −) or KTS (+ or −) isoforms of WT1 on Prm1-directed gene expression, HEL cells were co-transfected with either pGL3b:Prm1 or pGL3b:Prm1D (1.5 μg) plus 200 ng of pRL-TK along with either pcDNA3:WT1 (+/+), pcDNA3:WT1 (+/−), pcDNA3:WT1 (−/+), pcDNA3:WT1 (−/−) (0.5 μg), or as a control, pcDNA3 (0.5 μg). […]

Row | Molecule | Effect on transcriptional activity of Prm3 [1] | Effect on Prm1 [2] | Effect of NAB1 over-expression on PMA-induction of Prm1 activity ([3]; HEL, PMA 100 nM 16 h) | Effect of NAB1 over-expression on Prm1-directed luciferase activity ([3]; vehicle-treated HEL cells)
1 | CCCCC/C=C/C=C1/C(=O)C=C[C@@H]1C/C=C\CCCC(=O)O [15d-PGJ2, 15-deoxy-Δ12,14-prostaglandin J2] | suppressed the transcriptional activity of Prm3 | had no effect on Prm1 |  | 
2 | B1 |  |  | significantly reduced the PMA-induction of Prm1 activity | did not significantly affect Prm1-directed luciferase activity

Source: patent US20110269825A1, “Modified Thromboxane A2 Receptor Promoter Sequence” (priority 2008, published 2011)
